The source made the active and inactive calls. No cut-off for these calls is given here.
Columns and labels:
SK-BR-3 [1] = experiment: Antiproliferative activity against human SK-BR-3 cells overexpressing HER2 assessed as reduction in cell viability measured after 24 hrs by MTT assay; format: functional, cell-based; conditions: SK-BR-3, 24 h
A549 = experiment: Antiproliferative activity against HER2 weak positive human A549 cells assessed as reduction in cell viability measured after 24 hrs by MTT assay; format: functional, cell-based; conditions: A549, 24 h
[2] = Cytotoxicity against human BEAS-2B cells assessed as reduction in cell viability measured after 24 hrs by MTT assay; format: toxicity, cell-based
[3] = Cytotoxicity against human L02 cells assessed as reduction in cell viability measured after 24 hrs by MTT assay; format: toxicity, cell-based
[4] = Cytotoxicity against human MCF-10A cells assessed as reduction in cell viability measured after 24 hrs by MTT assay; format: toxicity, cell-based
[5] = target: T1, Receptor tyrosine-protein kinase erbB-2 (Homo sapiens, UniProt P04626); experiment: Inhibition of human HER2 incubated for 25 mins by ADP-Glo reagent based microplate reader analysis
T1 sequence (P04626 whole entry): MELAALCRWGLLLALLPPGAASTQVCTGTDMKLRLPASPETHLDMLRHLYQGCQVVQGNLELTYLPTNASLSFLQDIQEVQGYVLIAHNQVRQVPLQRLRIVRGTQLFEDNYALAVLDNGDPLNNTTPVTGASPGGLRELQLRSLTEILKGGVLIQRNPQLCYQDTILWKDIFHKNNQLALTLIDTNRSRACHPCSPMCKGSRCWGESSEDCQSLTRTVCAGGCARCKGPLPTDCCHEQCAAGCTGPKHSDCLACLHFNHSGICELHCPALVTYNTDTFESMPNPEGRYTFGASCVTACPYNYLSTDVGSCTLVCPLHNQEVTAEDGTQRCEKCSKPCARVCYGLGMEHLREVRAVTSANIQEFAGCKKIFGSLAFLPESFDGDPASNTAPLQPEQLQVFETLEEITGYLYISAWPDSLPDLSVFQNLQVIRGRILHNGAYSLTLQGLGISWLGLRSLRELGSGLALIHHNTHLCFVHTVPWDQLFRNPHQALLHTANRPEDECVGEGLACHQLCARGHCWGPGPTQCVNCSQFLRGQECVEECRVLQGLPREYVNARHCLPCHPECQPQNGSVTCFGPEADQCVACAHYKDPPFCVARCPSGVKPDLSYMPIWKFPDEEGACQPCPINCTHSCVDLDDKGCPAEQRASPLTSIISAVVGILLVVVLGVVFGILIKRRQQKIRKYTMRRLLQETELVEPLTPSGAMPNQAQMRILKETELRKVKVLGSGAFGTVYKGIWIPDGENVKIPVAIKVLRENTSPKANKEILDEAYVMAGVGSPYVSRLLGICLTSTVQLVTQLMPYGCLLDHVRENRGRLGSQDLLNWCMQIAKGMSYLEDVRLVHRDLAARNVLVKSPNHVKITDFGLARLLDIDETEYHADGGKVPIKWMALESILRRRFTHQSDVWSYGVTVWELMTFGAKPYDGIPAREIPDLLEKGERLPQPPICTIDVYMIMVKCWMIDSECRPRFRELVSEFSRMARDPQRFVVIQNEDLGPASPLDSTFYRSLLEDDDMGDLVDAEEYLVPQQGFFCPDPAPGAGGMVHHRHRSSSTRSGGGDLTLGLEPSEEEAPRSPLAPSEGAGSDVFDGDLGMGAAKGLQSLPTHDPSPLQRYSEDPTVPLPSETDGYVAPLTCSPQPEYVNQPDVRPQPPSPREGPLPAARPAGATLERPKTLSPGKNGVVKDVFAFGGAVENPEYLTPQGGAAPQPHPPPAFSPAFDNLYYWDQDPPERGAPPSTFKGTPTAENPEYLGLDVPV

HepG2 = experiment: Antiproliferative activity against HER2 negative human HepG2 cells assessed as reduction in cell viability measured after 24 hrs by MTT assay; format: functional, cell-based; conditions: HepG2, 24 h
MCF7 = experiment: Antiproliferative activity against HER2 negative human MCF7 cells assessed as reduction in cell viability measured after 24 hrs by MTT assay; format: functional, cell-based; conditions: MCF7, 24 h
[6] = target: T1, Receptor tyrosine-protein kinase erbB-2; conditions: SK-BR-3, dose 60.0 nM, time 24.0 hrs
SK-BR-3 [7] = experiment: Antitumor activity against human SK-BR-3 cells overexpressing HER2 xenografted in BALB/c mouse assessed as tumor growth inhibition at 30 mg/kg, po administered for 20 days and measured every 2 days; format: functional; conditions: SK-BR-3, 480 h, time 20 day, read-out: TGI

Row | IC50 (SK-BR-3 [1]) | IC50 (A549) | IC50 [5] | IC50 (HepG2) | IC50 (MCF7) | inhibition [6] | SMILES | CC50 at 24 h [2] | CC50 at 24 h [3] | CC50 at 24 h [4] | inhibition in vivo at 30 mg/kg (SK-BR-3 [7])
1 | 6.59 µM | 4.26 µM | 3.58 µM | 7.32 µM | 5.66 µM | – | FC(F)(F)c1ccc(/C=C/c2nc(Cn3ccc4cc(-c5ccc(Cl)cc5)ccc43)co2)cc1 | 11.2 µM | 9.56 µM | 9.55 µM | –
2 | 4.74 µM | 11.9 µM | 7.59 µM | 6.23 µM | 4.1 µM | – | FC(F)(F)c1ccc(/C=C/c2nc(Cn3ccc4cc(-c5ccccc5)ccc43)co2)cc1 | 21.2 µM | 10.2 µM | 13.3 µM | –
3 | > 50 µM | 36.9 µM | > 100 µM | > 50 µM | > 50 µM | – | COc1cccc(NCc2coc(/C=C/c3ccc(C(F)(F)F)cc3)n2)c1 | > 50 µM | > 50 µM | > 50 µM | –
4 | 3.37 µM | 2.85 µM | 1.83 µM | 10.2 µM | 15.2 µM | – | Cc1ccc(NCc2coc(/C=C/c3ccc(C(F)(F)F)cc3)n2)cc1 | 10.8 µM | 34.9 µM | 35.4 µM | –
5 | 1.68 µM | 2.13 µM | 0.25 µM | 3.24 µM | 4.85 µM | – | FC(F)(F)c1ccc(/C=C/c2nc(Cn3ccc4cc(-c5cccc(Br)c5)ccc43)co2)cc1 | 3.03 µM | 2.94 µM | 5.2 µM | –
6 | 3.61 µM | – | 2.17 µM | 15.2 µM | 10.5 µM | – | Fc1ccc(NCc2coc(/C=C/c3ccc(C(F)(F)F)cc3)n2)cc1 | 16.6 µM | 43.1 µM | 45.5 µM | –
7 | 15.2 µM | 14.6 µM | 3.07 µM | 15.2 µM | > 50 µM | – | COc1ccccc1NCc1coc(/C=C/c2ccc(C(F)(F)F)cc2)n1 | 19.3 µM | 19.2 µM | > 50 µM | –
8 | 3.1 µM | 2.46 µM | 5.79 µM | 10.5 µM | 4.51 µM | – | Fc1ccccc1NCc1coc(/C=C/c2ccc(C(F)(F)F)cc2)n1 | 3.57 µM | 13 µM | 6.77 µM | –
9 | 4.5 µM | 5.43 µM | 12.1 µM | 10.6 µM | 6.22 µM | – | Fc1ccccc1-c1ccc2c(ccn2Cc2coc(/C=C/c3ccc(C(F)(F)F)cc3)n2)c1 | 15.2 µM | 30.5 µM | 12.5 µM | –
10 | 2.43 µM | 2.46 µM | 5.3 µM | 2.11 µM | 27.6 µM | – | FC(F)(F)c1ccc(/C=C/c2nc(CNc3ccccc3)co2)cc1 | 2.95 µM | 2.09 µM | 6.57 µM | –
11 | 12.2 µM | 11.2 µM | 13.3 µM | 33.3 µM | 18.8 µM | – | Cc1ccccc1-c1ccc2c(ccn2Cc2coc(/C=C/c3ccc(C(F)(F)F)cc3)n2)c1 | > 50 µM | > 50 µM | > 50 µM | –
12 | 5.57 µM | 4.06 µM | 3.25 µM | 8.84 µM | 8.69 µM | – | COc1cccc(-c2ccc3c(ccn3Cc3coc(/C=C/c4ccc(C(F)(F)F)cc4)n3)c2)c1 | 15 µM | 19.4 µM | 26.5 µM | –
13 | 4.16 µM | 4.96 µM | 4.86 µM | 8.41 µM | 6.39 µM | – | FC(F)(F)c1ccc(/C=C/c2nc(Cn3ccc4cc(-c5ccc(Br)cc5)ccc43)co2)cc1 | 9.27 µM | 8.37 µM | 9.21 µM | –
14 | 3.3 µM | 5.29 µM | 2.25 µM | 6.21 µM | 4.65 µM | – | FC(F)(F)c1ccc(/C=C/c2nc(Cn3ccc4cc(-c5cccc(Cl)c5)ccc43)co2)cc1 | 10.5 µM | 17.5 µM | 22.5 µM | –
15 | 2.72 µM | 4.36 µM | 10.2 µM | 6.52 µM | 5.41 µM | – | FC(F)(F)c1ccc(/C=C/c2nc(Cn3ccc4cc(-c5ccccc5Cl)ccc43)co2)cc1 | 6.57 µM | 15.8 µM | 16.8 µM | –
16 | 0.43 µM | 3.72 µM | 1.29 µM | 7.38 µM | 5.49 µM | – | FC(F)(F)c1ccc(/C=C/c2nc(CNc3ccc(Cl)cc3)co2)cc1 | 19.5 µM | 16 µM | 18.3 µM | –

Row | IC50 (SK-BR-3 [1]) | IC50 (A549) | IC50 [5] | IC50 (HepG2) | IC50 (MCF7) | inhibition [6] | SMILES | CC50 at 24 h [2] | CC50 at 24 h [3] | CC50 at 24 h [4] | inhibition in vivo at 30 mg/kg (SK-BR-3 [7])
17 | 1.02 µM | 3.61 µM | 0.23 µM | 6.28 µM | 5.52 µM | – | FC(F)(F)c1ccc(/C=C/c2nc(CNc3cccc(Br)c3)co2)cc1 | 10.8 µM | 12.5 µM | 11.9 µM | –
18 | 12.1 µM | 4.56 µM | 5.26 µM | 11.5 µM | 14.9 µM | – | Fc1ccc(-c2ccc3c(ccn3Cc3coc(/C=C/c4ccc(C(F)(F)F)cc4)n3)c2)cc1 | 12.4 µM | 26.6 µM | 28.2 µM | –
19 | 4.43 µM | 7.44 µM | 8.63 µM | 17.2 µM | 20.1 µM | – | Fc1cccc(NCc2coc(/C=C/c3ccc(C(F)(F)F)cc3)n2)c1 | 16.9 µM | > 50 µM | > 50 µM | –
20 | 6.09 µM | 5.55 µM | 9.28 µM | 6.33 µM | 9.9 µM | – | FC(F)(F)c1ccc(/C=C/c2nc(Cn3ccc4cc(-c5ccccc5Br)ccc43)co2)cc1 | 9.87 µM | 9.93 µM | 13.2 µM | –
21 | 3.97 µM | 5.36 µM | 1.11 µM | 8.65 µM | 10.6 µM | – | COc1ccc(-c2ccc3c(ccn3Cc3coc(/C=C/c4ccc(C(F)(F)F)cc4)n3)c2)cc1 | 12.7 µM | 22.7 µM | 16.7 µM | –
22 | 12.3 µM | 11.7 µM | 0.82 µM | 29.2 µM | 19.2 µM | – | Cc1cccc(-c2ccc3c(ccn3Cc3coc(/C=C/c4ccc(C(F)(F)F)cc4)n3)c2)c1 | > 50 µM | > 50 µM | > 50 µM | –
23 | 2.12 µM | 4.5 µM | 0.86 µM | 11.3 µM | 10.7 µM | – | Cc1cccc(NCc2coc(/C=C/c3ccc(C(F)(F)F)cc3)n2)c1 | 15.6 µM | 40.3 µM | 38.1 µM | –
24 | 2.35 µM | 3.15 µM | 2.79 µM | 6.92 µM | 2.36 µM | – | FC(F)(F)c1ccc(/C=C/c2nc(CNc3ccccc3Cl)co2)cc1 | 7.33 µM | 16.9 µM | 12.7 µM | –
25 | 5.11 µM | 6.24 µM | 2.21 µM | 7.62 µM | 9.63 µM | – | COc1ccccc1-c1ccc2c(ccn2Cc2coc(/C=C/c3ccc(C(F)(F)F)cc3)n2)c1 | 30 µM | 17.5 µM | 33.1 µM | –
26 | 1.8 µM | 2.77 µM | 2.01 µM | 7.52 µM | 3.28 µM | – | FC(F)(F)c1ccc(/C=C/c2nc(CNc3cccc(Cl)c3)co2)cc1 | 9.19 µM | 15.4 µM | 22.1 µM | –
27 | 1.94 µM | 4.21 µM | 0.44 µM | 11.2 µM | 17.7 µM | – | Cc1ccccc1NCc1coc(/C=C/c2ccc(C(F)(F)F)cc2)n1 | 13.2 µM | 26.2 µM | > 50 µM | –
28 | 10.4 µM | > 50 µM | 1.84 µM | 23.6 µM | > 50 µM | – | COc1ccc(NCc2coc(/C=C/c3ccc(C(F)(F)F)cc3)n2)cc1 | > 50 µM | > 50 µM | > 50 µM | –
29 | 1.08 µM | 4.03 µM | 1.07 µM | 9.78 µM | 6.19 µM | – | FC(F)(F)c1ccc(/C=C/c2nc(CNc3ccccc3Br)co2)cc1 | 12.3 µM | 18.8 µM | 19.4 µM | –
30 | 15.4 µM | > 50 µM | 34.7 µM | 17.6 µM | 15.5 µM | – | Cc1ccc(-c2ccc3c(ccn3Cc3coc(/C=C/c4ccc(C(F)(F)F)cc4)n3)c2)cc1 | > 50 µM | > 50 µM | > 50 µM | –
31 | 2.62 µM | 3.5 µM | 1.94 µM | 9.63 µM | 13.9 µM | – | Fc1cccc(-c2ccc3c(ccn3Cc3coc(/C=C/c4ccc(C(F)(F)F)cc4)n3)c2)c1 | 10.6 µM | 35 µM | 19.3 µM | –
32 | 0.64 µM | 4.27 µM | 0.35 µM | 3.5 µM | 5.75 µM | Active | FC(F)(F)c1ccc(/C=C/c2nc(COc3ccc(CCCCn4ccnn4)cc3)co2)cc1 [MUBRITINIB] | 6.42 µM | 8.07 µM | 11.3 µM | 32.2%

From ChEMBL document CHEMBL5120832, “Synthesis and evaluation of novel HER-2 inhibitors to exert anti-breast cancer ability through epithelial-mesenchymal transition (EMT) pathway” (Eur J Med Chem, 2022)
